Species on record: Rattus norvegicus
Assay: DrugMatrix - Regimen: Daily Repeat
Type: toxicity, organism-based, Sprague-Dawley
Parameters: regimen Daily Repeat, gender Male, age 6-8 weeks
Conditions: in vivo, po, route oral GAVAGE, vehicle .5 % CMC; for ABSOLUTE BASOPHIL / ABSOLUTE EOSINOPHIL / ABSOLUTE LYMPHOCYTE / ABSOLUTE MONOCYTE / ABSOLUTE SEGMENTED NEUTROPHIL / BASOPHIL / EOSINOPHIL / ERYTHROCYTE COUNT / HEMATOCRIT / HEMOGLOBIN / LEUKOCYTE COUNT / LYMPHOCYTE / MEAN CORPUSCULAR HEMOGLOBIN / MEAN CORPUSCULAR HEMOGLOBIN CONCENTRATION / MEAN CORPUSCULAR VOLUME / MONOCYTE / NEUTROPHIL / NUCLEATED RED BLOOD CELLS / PLATELET COUNT: tissue Blood; for ALANINE AMINOTRANSFERASE / ALBUMIN / ALKALINE PHOSPHATASE / ASPARTATE AMINOTRANSFERASE / BLOOD UREA NITROGEN / CARBON DIOXIDE / CHLORIDE / CHOLESTEROL / CREATINE PHOSPHOKINASE / CREATININE / GLUCOSE / LACTATE DEHYDROGENASE / LIPASE / PHOSPHORUS / POTASSIUM / SODIUM / TOTAL BILIRUBIN / TOTAL PROTEIN / URIC ACID: tissue Plasma
[1] = 80 mg/kg, 72 h, dose level Low, time 3 day
[2] = 80 mg/kg, 120 h, dose level Low, time 5 day
[3] = 1500 mg/kg, 72 h, dose level High, time 3 day
[4] = 1500 mg/kg, 120 h, dose level High, time 5 day

## Cc1cc(=O)n(-c2ccccc2)n1C [ANTIPYRINE]
[1]
  ABSOLUTE BASOPHIL: 0 CELLS/uL
  ABSOLUTE EOSINOPHIL: 91.33 CELLS/uL
  ABSOLUTE LYMPHOCYTE: 12252 CELLS/uL
  ABSOLUTE MONOCYTE: 196 CELLS/uL
  ABSOLUTE SEGMENTED NEUTROPHIL: 1827.33 CELLS/uL
  BASOPHIL: 0%
  EOSINOPHIL: 0.67%
  ERYTHROCYTE COUNT: 5.35 x10E6/uL
  HEMATOCRIT: 34.23%
  HEMOGLOBIN: 13.5 G/DL
  LEUKOCYTE COUNT: 14.37 x10E3/uL
  LYMPHOCYTE: 86%
  MEAN CORPUSCULAR HEMOGLOBIN: 25.27 pg
  MEAN CORPUSCULAR HEMOGLOBIN CONCENTRATION: 39.43 G/DL
  MEAN CORPUSCULAR VOLUME: 64 fL
  MONOCYTE: 1.33%
  NEUTROPHIL: 12%
  NUCLEATED RED BLOOD CELLS: 0.33 /100WBC
  PLATELET COUNT: 1283.67 x10E3/uL
  ALANINE AMINOTRANSFERASE: 47.67 u/L
  ALBUMIN: 4.47 G/DL
  ALKALINE PHOSPHATASE: 419 u/L
  ASPARTATE AMINOTRANSFERASE: 82 u/L
  BLOOD UREA NITROGEN: 18 mg/dL
  CARBON DIOXIDE: 23.33 mmol/L
  CHLORIDE: 103.67 MEQ/L
  CHOLESTEROL: 77 mg/dL
  CREATINE PHOSPHOKINASE: 225 u/L
  CREATININE: 0.22 mg/dL
  GLUCOSE: 163 mg/dL
  LACTATE DEHYDROGENASE: 184 u/L
  LIPASE: 9.67 u/L
  PHOSPHORUS: 13.9 mg/dL
  POTASSIUM: 7.07 MEQ/L
  SODIUM: 147.1 MEQ/L
  TOTAL BILIRUBIN: 0.27 mg/dL
  TOTAL PROTEIN: 6.23 G/DL
  URIC ACID: 1.77 mg/dL
[2]
  ABSOLUTE BASOPHIL: 0 CELLS/uL
  ABSOLUTE EOSINOPHIL: 104 CELLS/uL
  ABSOLUTE LYMPHOCYTE: 12025 CELLS/uL
  ABSOLUTE MONOCYTE: 0 CELLS/uL
  ABSOLUTE SEGMENTED NEUTROPHIL: 871 CELLS/uL
  BASOPHIL: 0%
  EOSINOPHIL: 0.67%
  ERYTHROCYTE COUNT: 5.47 x10E6/uL
  HEMATOCRIT: 35.87%
  HEMOGLOBIN: 13.93 G/DL
  LEUKOCYTE COUNT: 13 x10E3/uL
  LYMPHOCYTE: 92.33%
  MEAN CORPUSCULAR HEMOGLOBIN: 25.53 pg
  MEAN CORPUSCULAR HEMOGLOBIN CONCENTRATION: 38.9 G/DL
  MEAN CORPUSCULAR VOLUME: 65.6 fL
  MONOCYTE: 0%
  NEUTROPHIL: 7%
  NUCLEATED RED BLOOD CELLS: 0.33 /100WBC
  PLATELET COUNT: 1274.33 x10E3/uL
  ALANINE AMINOTRANSFERASE: 48 u/L
  ALBUMIN: 4.27 G/DL
  ALKALINE PHOSPHATASE: 367.33 u/L
  ASPARTATE AMINOTRANSFERASE: 83 u/L
  BLOOD UREA NITROGEN: 15.67 mg/dL
  CARBON DIOXIDE: 26.33 mmol/L
  CHLORIDE: 101 MEQ/L
  CHOLESTEROL: 76.33 mg/dL
  CREATINE PHOSPHOKINASE: 353 u/L
  CREATININE: 0.16 mg/dL
  GLUCOSE: 179.67 mg/dL
  LACTATE DEHYDROGENASE: 147.67 u/L
  LIPASE: 8.67 u/L
  PHOSPHORUS: 12.13 mg/dL
  POTASSIUM: 7.07 MEQ/L
  SODIUM: 141.77 MEQ/L
  TOTAL BILIRUBIN: 0.13 mg/dL
  TOTAL PROTEIN: 5.97 G/DL
  URIC ACID: 2.27 mg/dL
[3]
  ABSOLUTE BASOPHIL: 0 CELLS/uL
  ABSOLUTE EOSINOPHIL: 55 CELLS/uL
  ABSOLUTE LYMPHOCYTE: 14551 CELLS/uL
  ABSOLUTE MONOCYTE: 220 CELLS/uL
  ABSOLUTE SEGMENTED NEUTROPHIL: 1207.33 CELLS/uL
  BASOPHIL: 0%
  EOSINOPHIL: 0.33%
  ERYTHROCYTE COUNT: 5.53 x10E6/uL
  HEMATOCRIT: 35.67%
  HEMOGLOBIN: 14.13 G/DL
  LEUKOCYTE COUNT: 16.03 x10E3/uL
  LYMPHOCYTE: 90.67%
  MEAN CORPUSCULAR HEMOGLOBIN: 25.6 pg
  MEAN CORPUSCULAR HEMOGLOBIN CONCENTRATION: 39.63 G/DL
  MEAN CORPUSCULAR VOLUME: 64.5 fL
  MONOCYTE: 1.33%
  NEUTROPHIL: 7.67%
  NUCLEATED RED BLOOD CELLS: 0.33 /100WBC
  PLATELET COUNT: 1257 x10E3/uL
  ALANINE AMINOTRANSFERASE: 71 u/L
  ALBUMIN: 4.27 G/DL
  ALKALINE PHOSPHATASE: 404.67 u/L
  ASPARTATE AMINOTRANSFERASE: 85 u/L
  BLOOD UREA NITROGEN: 14 mg/dL
  CARBON DIOXIDE: 37 mmol/L
  CHLORIDE: 99.33 MEQ/L
  CHOLESTEROL: 76 mg/dL
  CREATINE PHOSPHOKINASE: 183.33 u/L
  CREATININE: 0.17 mg/dL
  GLUCOSE: 141.67 mg/dL
  LACTATE DEHYDROGENASE: 103.33 u/L
  LIPASE: 9.67 u/L
  PHOSPHORUS: 10.07 mg/dL
  POTASSIUM: 6.57 MEQ/L
  SODIUM: 143.77 MEQ/L
  TOTAL BILIRUBIN: 0.2 mg/dL
  TOTAL PROTEIN: 5.83 G/DL
  URIC ACID: 1.53 mg/dL
[4]
  ABSOLUTE BASOPHIL: 0 CELLS/uL
  ABSOLUTE EOSINOPHIL: 0 CELLS/uL
  ABSOLUTE LYMPHOCYTE: 19193.67 CELLS/uL
  ABSOLUTE MONOCYTE: 792.67 CELLS/uL
  ABSOLUTE SEGMENTED NEUTROPHIL: 3680.33 CELLS/uL
  BASOPHIL: 0%
  EOSINOPHIL: 0%
  ERYTHROCYTE COUNT: 5.35 x10E6/uL
  HEMATOCRIT: 35.1%
  HEMOGLOBIN: 14.13 G/DL
  LEUKOCYTE COUNT: 23.67 x10E3/uL
  LYMPHOCYTE: 81.33%
  MEAN CORPUSCULAR HEMOGLOBIN: 26.43 pg
  MEAN CORPUSCULAR HEMOGLOBIN CONCENTRATION: 40.27 G/DL
  MEAN CORPUSCULAR VOLUME: 65.7 fL
  MONOCYTE: 3.67%
  NEUTROPHIL: 15%
  NUCLEATED RED BLOOD CELLS: 0.33 /100WBC
  PLATELET COUNT: 1282 x10E3/uL
  ALANINE AMINOTRANSFERASE: 57.67 u/L
  ALBUMIN: 4.27 G/DL
  ALKALINE PHOSPHATASE: 338.33 u/L
  ASPARTATE AMINOTRANSFERASE: 86 u/L
  BLOOD UREA NITROGEN: 16.33 mg/dL
  CARBON DIOXIDE: 36 mmol/L
  CHLORIDE: 103 MEQ/L
  CHOLESTEROL: 72.33 mg/dL
  CREATINE PHOSPHOKINASE: 309 u/L
  CREATININE: 0.24 mg/dL
  GLUCOSE: 135 mg/dL
  LACTATE DEHYDROGENASE: 379.67 u/L
  LIPASE: 10 u/L
  PHOSPHORUS: 10.8 mg/dL
  POTASSIUM: 7.71 MEQ/L
  SODIUM: 141.33 MEQ/L
  TOTAL BILIRUBIN: 0.2 mg/dL
  TOTAL PROTEIN: 5.9 G/DL
  URIC ACID: 1.2 mg/dL

— ChEMBL document CHEMBL3885881, “DrugMatrix”
